Reference: US20240033259A1, “COMPOSITIONS AND METHODS FOR TREATING OR PREVENTING DISEASE ASSOCIATED WITH BETA CORONAVIRUS INFECTION” (priority 2020, published 2024)
Where two headings read alike, the source gives them in different places.

How the values were obtained:
[1] = tested on: SARS-CoV-2; experiment: microbe, parasite or virus in culture; assay type: cell-based; details: Severe acute respiratory syndrome coronavirus 2, Vero C1008, 96 h
[2] = in vitro; details: African green monkey
[3] = tested on: SARS-CoV-2; experiment: microbe, parasite or virus in culture; assay type: cell-based
[4] = tested on: Vero E6 cells
[5] = CPE assay, percent cell protection, moi 0.05, 4 days, read-out: EC50
[6] = Severe acute respiratory syndrome coronavirus 2, Vero C1008, Table 2, naproxen/ketotifen experiment
[7] = Table 2, column 50 μM (head: Concentration Naproxen)

| SMILES | EC50 [1, 5] [µM] | CC50 [2] [µM] | inhibition of SARS-CoV-2 / viral yield (in words) [3] | Percentage viability ([4]; concentration 0.39 μM) [%] | Percentage viability ([4]; concentration 0.78 μM) [%] | Percentage viability ([4]; concentration 1.56 μM) [%] | Percentage viability ([4]; concentration 3.13 μM) [%] | Percentage viability ([4]; concentration 6.25 μM) [%] | Percentage viability ([4]; concentration 12.5 μM) [%] | Percentage viability ([4]; concentration 25 μM) [%] | Percentage viability ([4]; concentration 50 μM) [%] | EC50 [1] [µM] | EC50 [3, 6] [µM] | percentage inhibition of SARS-CoV-2 [3, 7] [%] | also measured |
| --- | --- | --- | --- | --- | --- | --- | --- | --- | --- | --- | --- | --- | --- | --- | --- |
| COc1ccc2c(c1)c(CC(=O)O)c(C)n2C(=O)c1ccc(Cl)cc1 [Indomethacin, 2-{1-[(4-Chlorophenyl)-carbonyl]-5-methoxy-2-methyl-1H-indol-3-yl}acetic acid] | > 400 | > 400 | inhibited SARS-CoV-2 | 98 | 106 | 111 | 117 | 124 | 124 | 125 | 143 |  |  |  | EC50 ([3]; Severe acute respiratory syndrome coronavirus 2, Vero C1008, Table 4, indomethacin titrated, alone or with fixed ketotifen): 100 µM; inhibition at 25 µM ([3]; Severe acute respiratory syndrome coronavirus 2, Vero C1008, Table 4, Concentration Indomethacin 25 μM, read-out: percentage inhibition of SARS-CoV-2): 0%; inhibition at 50 µM ([3]; Severe acute respiratory syndrome coronavirus 2, Vero C1008, Table 4, Concentration Indomethacin 50 μM, read-out: percentage inhibition of SARS-CoV-2): 0%; inhibition at 100 µM ([3]; Severe acute respiratory syndrome coronavirus 2, Vero C1008, Table 4, Concentration Indomethacin 100 μM, read-out: percentage inhibition of SARS-CoV-2): 50%; Percentage viability ([4]; concentration 100 μM): 143% |
| CN1CCC(=C2c3ccccc3CC(=O)c3sccc32)CC1 [Ketotifen] |  | 139 | inhibited SARS-CoV-2 | 103 | 101 | 109 | 121 | 125 | 122 | 104 | 86 | > 139 | 48.9 | 68 | EC50 ([3]; Severe acute respiratory syndrome coronavirus 2, Vero C1008, Table 3, ketotifen titrated, alone or with fixed indomethacin): 47.1 µM; inhibition at 6.25 µM ([3]; Severe acute respiratory syndrome coronavirus 2, Vero C1008, Table 3, Concentration Ketotifen 6.25 μM, read-out: percentage inhibition of SARS-CoV-2): 0%; inhibition at 12.5 µM ([3]; Severe acute respiratory syndrome coronavirus 2, Vero C1008, Table 3, Concentration Ketotifen 12.5 μM, read-out: percentage inhibition of SARS-CoV-2): 0%; inhibition at 25 µM ([3]; Severe acute respiratory syndrome coronavirus 2, Vero C1008, Table 3, Concentration Ketotifen 25 μM, read-out: percentage inhibition of SARS-CoV-2): 0%; inhibition at 50 µM ([3]; Severe acute respiratory syndrome coronavirus 2, Vero C1008, Table 3, Concentration Ketotifen 50 μM, read-out: percentage inhibition of SARS-CoV-2): 60%; Percentage viability ([4]; concentration 0.20 μM): 110% |
| COc1ccc2cc(C(C)C(=O)O)ccc2c1 (stereo not drawn) [Naproxen, 6-methoxy-α-methyl-2-naphthaleneacetic acid] | > 400 |  |  |  |  |  |  |  |  |  |  |  | > 100 | 0 | percentage inhibition of SARS-CoV-2 ([3]; Table 2, column 6.25 μM (head: Concentration Naproxen)): 0%; percentage inhibition of SARS-CoV-2 ([3]; Table 2, column 12.5 μM (head: Concentration Naproxen)): 21%; percentage inhibition of SARS-CoV-2 ([3]; Table 2, column 25 μM (head: Concentration Naproxen)): 0%; percentage inhibition of SARS-CoV-2 ([3]; Table 2, column 100 μM (head: Concentration Naproxen)): 0% |
| CCC(CC)COC(=O)[C@H](C)N[P@](=O)(OC[C@H]1O[C@@](C#N)(c2ccc3c(N)ncnn23)[C@H](O)[C@@H]1O)Oc1ccccc1 [Remdesivir] |  |  |  |  |  |  |  |  |  |  |  | 2.9 |  |  |  |
